Reference: patent US20100254965A1, “Adenosine Signaling in Diagnosis, Treatment, and Prevention of Priapism and Erectile Dysfunction” (BOARD OF REGENTS ,THE UNIVERSITY OF TEXAS SYSTEM, priority 2006, published 2010)
“Also recorded” adds a separate entry of the source.

How the values were obtained:
[1] = test system: corpus cavernosal strips (CCS); experiment: cGMP production in CCS (penile organ culture) in response to adenosine; format: cell-based, mouse
Description: (§1) FIG. 18. Adenosine stimulated both cAMP and cGMP induction in corpus cavernosal smooth muscle cells (CCSM) via A2BR activation. (a) Adenosine receptor expression profile in purified primary CCSM. CCSM were purified from adult mouse penes. […] (b) CCSM were isolated and cultured from mouse penes. The cells were switched to serum-free medium and treated with different concentrations of adenosine with or without A2BR antagonist (MRS1706-10 μM), A2AR antagonist (ZM241385-50 nM) or A2AR agonist (CGS-21680-10 μM) alone for 10 min. Then cellular extracts were collected and cAMP levels were measured using an ELISA kit. […] After 10 min treatment, the cellular extracts were collected and cAMP levels were measured by using a commercial enzyme immunoassay kit (Amersham Pharmacia). […] 10 min after treatment, cellular extracts were collected and cGMP levels were measured by using a commercial enzyme immunoassay kit (Amersham Pharmacia). Data are expressed as mean±SE. *p<0.05, adenosine treated versus the control; **p<0.05, adenosine treated with MRS1706 versus the adenosine treated; ***p<0.05, CCS of A2BR-deficient mice treated with adenosine versus the CCS of wild type mice treated with adenosine. […] After 10 min treatment, the cellular extracts were collected and cAMP levels were measured by using a commercial enzyme immunoassay kit (Amersham Pharmacia). […]

CCS and CCSM = experiment: Phenylephrine-induced myosin light chain (MLC) phosphorylation, western blot; format: cell-based, mouse; conditions: intact penile organ culture and CCSM, PE 10 μM, adenosine 100 μM
Description: as §1

[2] = test system: corpus cavernosum of wild type, A2A-deficient and A2B-deficient mice; experiment: Intracavernous injection of adenosine: intracavernous pressure (ICP) and penile erection; format: in vivo, mouse
Description: FIG. 6. Different amounts of adenosine were injected into the corpus cavernosum of wild type, adenosine receptor A2A-deficient, and adenosine receptor A2B-deficient mice and the resulting change in ICP determined.
Methods: ADA-deficient mice and SCD transgenic mice, a well accepted priapism animal model, are the only animals known in which a persistent and prolonged penile erection occurs spontaneously. […] We have measured intracavernosal pressure and corpus cavernosal strip (CCS) relaxation with or without PEG-ADA treatment and/or a series of adenosine receptor antagonists or agonists in wild type ADA-deficient mice, and corpus cavernosal strip (CCS) relaxation with or without PEG-ADA treatment and/or a series of adenosine receptor antagonists or agonists in SCD transgenic mice, in response to nerve stimulation. We have also measured the intracavernosal pressure and CCS relaxation with or without adenosine treatment in wild type and multiple adenosine receptor deficient mice.

## Nc1ncnc2c1ncn2[C@@H]1O[C@H](CO)[C@@H](O)[C@H]1O [adenosine]
[1]; CCS of A2BR-deficient mice
  cGMP production: absent
[1]; wild type penile organ culture (CCS)
  cGMP production: can increase cGMP production; also recorded: induced by adenosine in a dosage-dependent manner
CCS and CCSM
  PE-mediated MLC phosphorylation: decreased PE-mediated MLC phosphorylation
[2]; A2B-deficient mice, injection into the corpus cavernosum
  adenosine-induced increase in ICP: significantly reduced
[2]; wild type mice, administration of adenosine
  intracavernous pressure (ICP) and its duration: induced an increase in intracavernous pressure (ICP) and its duration
[2]; wild type mice, local (intracavernous) injection
  penile erection: resulted in penile erection
